Publication PMC7462607 (eLife, 2020)

Experiments:
CDK12 = target: T1, CDK12 (Homo sapiens, UniProt Q9NYV4); test: Western blotting of CDK12 protein level in A549 cells; assay type: cell-based; conditions: A549, after 8 hr of treatment
T1 construct: Western blotting of CDK12 and CCNK from A549 cells treated with HQ461; endogenous in cells; host or cells: A549
Protocol: Standard SDS-PAGE and western blotting procedures were used with the following modifications. For preparation of total lysates, cells were rinsed with DPBS to remove residual medium and then lysed in 20 mM HEPES-NaOH, pH 8.0, 10 mM NaCl, 2 mM MgCl2, 1% SDS freshly supplemented with 0.5 units/µL of benzonase and 1x cOmplete, Mini, EDTA-free protease inhibitor cocktail (Roche, Bazel, Switzerland). Protein concentrations of the resulting lysates were quantified by the BCA method. Between 30 to 60 µg of proteins were resolved on SDS-PAGE and transferred to nitrocellulose membranes with a pore size of 0.5 μm. Membranes were blocked in 5% nonfat milk PBST (0.1% v/v Tween-20) for 30 min before blotting with antibodies. […]

CCNK = test: In vivo polyubiquitination of CCNK (HEK293T); assay type: cell-based, Homo sapiens; conditions: wild-type CDK12 co-expressed
Protocol: Wild-type and G731E/R ORFs of 3 × FLAG-CDK12, either full length or the kinase domain (from resides 715–1052), were cloned into the pCDNA3.1-N-3xFLAG vector. An ORF encoding CCNK (NM_001099402.2) was PCR amplified with A549 cDNA and cloned into a pCDNA3.1-C-3xHA vector. pCMV-8 ×His Ub was a gift from Dr. William Kaelin at Dana Farber Cancer Institute of Harvard. To set up cells for the in vivo ubiquitination assay, 0.6 million HEK293T cells were seeded per well in six-well tissue-culture plates. After overnight attachment, these cells were transfected with 500 ng of pCMV 8 × His Ub, 25 ng of pCDNA3.1-CCNK-3xHA, and 50 ng of pCDNA3.1-3xFLAG-CDK12. Two days later, cells were pretreated with 1 µM of bortezomib for 2 hr, followed by treatment with DMSO or three doses of HQ461 (1, 3, 10 µM) for 4 hr. Cells from each well were rinsed once with DPBS and lysed in 500 μL of buffer 1 (25 mM Tris-HCl, pH 8.0, 8 M urea, 10 mM imidazole) freshly supplemented with one units/µL of benzonase and 1x cOmplete, Mini, EDTA-free protease inhibitor cocktail (Roche, Bazel, Switzerland). Lysates were clarified by spinning at 15,000 xg at 4°C for 10 min. Clarified lysate of each sample was mixed with 10 µL of Ni NTA magarose beads (SMART Life Sciences, Changzhou, China, SM00801) prewashed with lysis buffer. […]

CCNK-luc reporter = test: CCNK-luc degradation assay; assay type: cell-based, Homo sapiens; conditions: 8 hr
Protocol: The ORF for CCNK was fused with the firefly luciferase (luc) sequence and inserted into the pCDNA3.1 vector. For setting up cells for co-transfection, 0.6 million 293 T cells were seeded per well in 6-well plates and allowed to attach to plates overnight. These cells were then transfected with 50 ng of pCDNA3.1-3xFLAG-CDK12 kinase domain, 50 ng of pCDNA3.1-CCNK-luc, and 400 ng of the empty pCDNA3.1 vector. Twenty-four hours later, transfected cells were dissociated by trypsin digestion and then plated in 96-well white plates. After overnight attachments, cells were then treated with HQ461 and its analog derivatives for 8 hr followed by measurements of luciferase activity with Bright-Glo luciferase assay system (Promega, Madison, USA). Half maximal CCNK-degradation concentrations (DC50) of HQ461 and its active analogs were interpolated by curve fitting with GraphPad Prism using baseline correction (by normalizing to DMSO control), the asymmetric (five parameter) equation, and least squares fit.

T1 sequence (Q9NYV4 whole entry): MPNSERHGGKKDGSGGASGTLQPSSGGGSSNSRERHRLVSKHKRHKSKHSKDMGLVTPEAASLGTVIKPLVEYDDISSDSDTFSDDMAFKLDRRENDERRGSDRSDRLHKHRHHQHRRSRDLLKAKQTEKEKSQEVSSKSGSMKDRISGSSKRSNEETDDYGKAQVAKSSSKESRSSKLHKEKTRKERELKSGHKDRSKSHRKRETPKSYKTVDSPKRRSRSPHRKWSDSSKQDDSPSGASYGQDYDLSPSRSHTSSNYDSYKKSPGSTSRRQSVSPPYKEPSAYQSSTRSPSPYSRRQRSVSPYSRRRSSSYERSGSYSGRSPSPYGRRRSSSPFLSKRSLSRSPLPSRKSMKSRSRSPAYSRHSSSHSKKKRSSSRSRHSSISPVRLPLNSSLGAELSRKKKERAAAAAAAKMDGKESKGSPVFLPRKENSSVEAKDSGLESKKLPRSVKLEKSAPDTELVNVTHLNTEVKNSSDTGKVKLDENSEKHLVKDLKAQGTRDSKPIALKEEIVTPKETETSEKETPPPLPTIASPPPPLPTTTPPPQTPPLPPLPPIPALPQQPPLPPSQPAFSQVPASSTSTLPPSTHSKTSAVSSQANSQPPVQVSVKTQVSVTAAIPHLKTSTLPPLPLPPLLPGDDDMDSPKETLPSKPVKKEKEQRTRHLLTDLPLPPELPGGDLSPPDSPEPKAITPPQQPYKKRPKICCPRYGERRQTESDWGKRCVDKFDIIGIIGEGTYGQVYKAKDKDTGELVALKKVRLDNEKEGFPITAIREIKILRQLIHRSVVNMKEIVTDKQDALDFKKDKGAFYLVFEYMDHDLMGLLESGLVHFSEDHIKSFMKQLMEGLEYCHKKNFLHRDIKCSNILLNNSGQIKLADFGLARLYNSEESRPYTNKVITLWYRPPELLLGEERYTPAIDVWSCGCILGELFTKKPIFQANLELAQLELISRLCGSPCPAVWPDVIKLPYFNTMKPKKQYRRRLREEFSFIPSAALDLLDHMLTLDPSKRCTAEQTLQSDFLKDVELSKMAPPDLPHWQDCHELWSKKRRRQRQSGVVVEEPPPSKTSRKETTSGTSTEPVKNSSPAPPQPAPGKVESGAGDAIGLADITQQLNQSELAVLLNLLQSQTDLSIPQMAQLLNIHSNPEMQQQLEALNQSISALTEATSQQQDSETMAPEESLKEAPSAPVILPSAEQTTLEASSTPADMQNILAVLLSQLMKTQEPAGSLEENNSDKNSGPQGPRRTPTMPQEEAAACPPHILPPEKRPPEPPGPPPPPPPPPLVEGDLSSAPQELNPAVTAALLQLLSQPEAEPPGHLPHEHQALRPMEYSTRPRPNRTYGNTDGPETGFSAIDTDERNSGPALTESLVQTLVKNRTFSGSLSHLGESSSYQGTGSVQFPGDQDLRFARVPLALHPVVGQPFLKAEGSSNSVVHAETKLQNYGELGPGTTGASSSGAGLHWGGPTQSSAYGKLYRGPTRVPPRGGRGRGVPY
T1 sequence (O75909 whole entry partner): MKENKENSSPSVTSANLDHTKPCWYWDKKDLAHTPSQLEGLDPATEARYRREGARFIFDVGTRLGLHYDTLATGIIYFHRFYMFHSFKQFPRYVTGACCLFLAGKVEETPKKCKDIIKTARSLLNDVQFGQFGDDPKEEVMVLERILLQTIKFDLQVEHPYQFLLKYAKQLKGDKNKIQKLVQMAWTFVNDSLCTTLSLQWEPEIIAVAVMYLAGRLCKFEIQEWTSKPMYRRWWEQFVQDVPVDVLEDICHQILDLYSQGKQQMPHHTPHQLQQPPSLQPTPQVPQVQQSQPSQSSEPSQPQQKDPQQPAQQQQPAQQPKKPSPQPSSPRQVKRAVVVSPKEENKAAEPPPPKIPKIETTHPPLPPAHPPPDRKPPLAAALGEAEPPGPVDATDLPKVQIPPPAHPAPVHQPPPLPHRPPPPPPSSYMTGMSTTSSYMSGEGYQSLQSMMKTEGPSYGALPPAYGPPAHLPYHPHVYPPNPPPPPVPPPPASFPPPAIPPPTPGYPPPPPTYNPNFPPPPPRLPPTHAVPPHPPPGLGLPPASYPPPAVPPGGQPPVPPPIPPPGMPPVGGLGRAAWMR

For Cc1cccc(Nc2nc(CC(=O)Nc3ncc(C)s3)cs2)n1 [HQ461, 2-(2-((6-methylpyridin-2-yl)amino)thiazol-4-yl)-N-(5-methylthiazol-2-yl)acetamide], the “reduction of CDK12 protein level” value (CDK12) was 50%, the “CCNK polyubiquitination in cells” value (CCNK) was “increased CCNK polyubiquitination” and the “Dmax (10 μM), percentage of CCNK degradation relative to DMSO control” value (CCNK-luc reporter; 10 µM) was 86.0%. For the same compound, the DC50 (CCNK-luc reporter; 293T, read-out: DC50 (half maximal CCNK-degradation concentration)) was 132 nM.
